The source of these data is patent publication US20250288589A1, “PYRIDOPYRIMIDINES AND METHODS OF THEIR USE” (Kineta, Inc., priority 2021, published 2025).

The assay has as its target T1, full-length human PIKFYVE (Homo sapiens, UniProt Q9Y2I7, L932S/Q1183K/Q995L/S1033A/S696N/T998S).
T1 construct: A full-length human PIKFYVE [1-2098(end) amino acids and S696N, L932S, Q995L, T998S, S1033A and Q1183K; purchased Carna Biosciences; host or cells: baculovirus expression system
Nature of the assay: PIKfyve biochemical assay (ADP-Glo Kinase assay, Carna Biosciences). The settings on record: GST-PIKFYVE, 10 μM to 3 nM in duplicate, read-out: hPIKfyve IC50.
Text: (§1) PIKfyve Biochemical Assay. The biochemical PIKFyve inhibition assays were run by Carna Biosciences according to proprietary methodology based on the Promega ADP-Glo™ Kinase assay. A full-length human PIKFYVE [1-2098(end) amino acids and S696N, L932S, Q995L, T998S, S1033A and Q1183K of the protein having the sequence set forth in NCBI Reference Sequence No. NP_055855.2] was expressed as N-terminal GST-fusion protein (265 kDa) using baculovirus expression system. GST-PIKFYVE was purified by using glutathione sepharose chromatography and used in an ADP-Glo™ Kinase assay (Promega). Reactions were set up by adding the test compound solution, substrate solution, ATP solution and kinase solution, each at 4× final concentrations. Reactions were prepared with assay buffer (50 mM MOPS, 1 mM DTT, pH7.2), mixed, and incubated in black 384 well polystyrene plates for 1 hour at room temperature. ADP-Glo™ reagent was then added for 40 minutes, followed by kinase detection reagent for an additional 40 minutes. The kinase activity was evaluated by detecting relative light units on a luminescence plate reader. Samples were run in duplicate from 10 μM to 3 nM. […] IC50 values were calculated from concentration vs % inhibition curves by fitting to a four-parameter logistic curve.
as §1, with “The” for “PIKfyve Biochemical Assay. The”, “accession number” for “the protein having the sequence set forth in NCBI Reference Sequence No.”, “uM” for “μM”

SMILES strings stand for the structures.

T1 sequence (Q9Y2I7 whole entry S696N/L932S/Q995L/T998S/S1033A/Q1183K): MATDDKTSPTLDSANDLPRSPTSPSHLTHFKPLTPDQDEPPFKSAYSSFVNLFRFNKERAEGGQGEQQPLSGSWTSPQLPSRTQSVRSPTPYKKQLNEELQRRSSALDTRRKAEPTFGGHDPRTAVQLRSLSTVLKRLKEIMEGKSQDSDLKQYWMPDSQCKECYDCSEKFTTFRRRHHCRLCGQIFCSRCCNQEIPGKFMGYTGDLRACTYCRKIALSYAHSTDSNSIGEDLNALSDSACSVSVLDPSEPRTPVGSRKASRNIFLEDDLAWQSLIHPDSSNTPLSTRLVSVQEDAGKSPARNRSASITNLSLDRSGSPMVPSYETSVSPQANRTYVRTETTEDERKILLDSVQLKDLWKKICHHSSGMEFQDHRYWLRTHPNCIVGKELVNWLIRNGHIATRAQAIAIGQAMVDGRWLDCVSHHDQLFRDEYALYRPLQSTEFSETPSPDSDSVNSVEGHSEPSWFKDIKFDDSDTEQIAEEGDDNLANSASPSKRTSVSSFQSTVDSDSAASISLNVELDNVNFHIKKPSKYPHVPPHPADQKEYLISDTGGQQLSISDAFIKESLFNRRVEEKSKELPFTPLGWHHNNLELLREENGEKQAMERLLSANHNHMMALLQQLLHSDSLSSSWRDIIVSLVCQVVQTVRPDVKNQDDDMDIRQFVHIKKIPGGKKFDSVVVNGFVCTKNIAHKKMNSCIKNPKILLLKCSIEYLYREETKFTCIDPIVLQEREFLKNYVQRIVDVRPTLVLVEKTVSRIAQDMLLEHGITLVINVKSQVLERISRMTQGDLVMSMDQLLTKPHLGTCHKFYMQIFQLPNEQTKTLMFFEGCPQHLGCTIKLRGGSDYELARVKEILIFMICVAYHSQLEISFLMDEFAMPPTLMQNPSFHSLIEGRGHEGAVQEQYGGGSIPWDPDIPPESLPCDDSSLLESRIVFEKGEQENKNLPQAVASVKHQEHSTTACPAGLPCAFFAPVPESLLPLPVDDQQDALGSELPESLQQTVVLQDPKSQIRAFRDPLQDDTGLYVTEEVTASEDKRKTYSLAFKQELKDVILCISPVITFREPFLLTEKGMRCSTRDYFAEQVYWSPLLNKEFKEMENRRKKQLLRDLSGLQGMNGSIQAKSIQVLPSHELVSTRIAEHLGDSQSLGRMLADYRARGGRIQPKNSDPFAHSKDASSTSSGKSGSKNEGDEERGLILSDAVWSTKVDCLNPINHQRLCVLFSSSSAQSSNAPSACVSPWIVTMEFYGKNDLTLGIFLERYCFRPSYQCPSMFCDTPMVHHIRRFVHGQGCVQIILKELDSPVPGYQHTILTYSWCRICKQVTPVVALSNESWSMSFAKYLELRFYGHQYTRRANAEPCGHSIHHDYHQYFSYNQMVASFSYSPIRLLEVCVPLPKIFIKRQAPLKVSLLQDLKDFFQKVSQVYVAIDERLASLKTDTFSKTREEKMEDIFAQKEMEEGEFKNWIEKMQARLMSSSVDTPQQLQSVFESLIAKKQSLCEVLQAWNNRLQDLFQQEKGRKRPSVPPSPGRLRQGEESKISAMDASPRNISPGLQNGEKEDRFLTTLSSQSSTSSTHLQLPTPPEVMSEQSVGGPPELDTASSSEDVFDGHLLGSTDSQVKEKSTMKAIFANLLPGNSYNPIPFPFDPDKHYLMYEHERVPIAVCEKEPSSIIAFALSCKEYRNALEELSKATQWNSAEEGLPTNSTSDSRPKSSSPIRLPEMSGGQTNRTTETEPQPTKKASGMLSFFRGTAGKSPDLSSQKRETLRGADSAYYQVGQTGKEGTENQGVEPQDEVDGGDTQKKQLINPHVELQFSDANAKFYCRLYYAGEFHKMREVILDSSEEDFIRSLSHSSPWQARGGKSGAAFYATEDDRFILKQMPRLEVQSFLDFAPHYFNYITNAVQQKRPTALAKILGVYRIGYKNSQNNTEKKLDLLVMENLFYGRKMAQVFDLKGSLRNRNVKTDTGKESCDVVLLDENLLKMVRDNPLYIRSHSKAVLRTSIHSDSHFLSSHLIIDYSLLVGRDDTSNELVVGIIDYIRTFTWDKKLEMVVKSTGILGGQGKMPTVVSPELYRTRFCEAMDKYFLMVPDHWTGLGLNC

On to `CC(C)(C)OC(=O)N1CCC=C(c2ccn(-c3nc(N4CCOCC4)c4ncccc4n3)n2)C1` [Compound 5, tert-butyl 3-(1-(4-morpholinopyrido[3,2-d]pyrimidin-2-yl)-1H-pyrazol-3-yl)-5,6-dihydropyridine-1(2H)-carboxylate], for which the IC50 was above 10000 nM.
To `c1ccc(-c2ccn(-c3nc(N4CCOCC4)c4nc(C5CCOCC5)ccc4n3)n2)cc1` [Compound 9, 4-[2-(3-phenylpyrazol-1-yl)-6-tetrahydropyran-4-yl-pyrido[3,2-d]pyrimidin-4-yl]morpholine] belongs 10 to 100 nM; to `c1ccc(-c2cnn(-c3nc(N4CCOCC4)c4ncc(C5CCOCC5)cc4n3)c2)cc1` [Compound 10, 4-[2-(4-phenylpyrazol-1-yl)-7-tetrahydropyran-4-yl-pyrido[3,2-d]pyrimidin-4-yl]morpholine], below 10 nM; to `c1cncc(-c2ccn(-c3nc(N4CCOCC4)c4ncccc4n3)n2)c1` [Compound 13, 4-(2-(3-(pyridin-3-yl)-1H-pyrazol-1-yl)pyrido[3,2-d]pyrimidin-4-yl)morpholine], 1000 to 10000 nM.
To `c1cnc2c(N3CCOCC3)nc(-n3ccc(-c4ccncc4)n3)nc2c1` [Compound 14, 4-(2-(3-(pyridin-4-yl)-1H-pyrazol-1-yl)pyrido[3,2-d]pyrimidin-4-yl)morpholine] belongs 1000 to 10000 nM; to `COc1cccc(-c2ccn(-c3nc(N4CCOCC4)c4ncc(C5=CCOCC5)cc4n3)n2)c1` [Compound 16, 4-(7-(3,6-dihydro-2H-pyran-4-yl)-2-(3-(3-methoxyphenyl)-1H-pyrazol-1-yl)pyrido[3,2-d]pyrimidin-4-yl)morpholine], below 10 nM.
Take `COc1ccc(-c2ccn(-c3nc(N4CCOCC4)c4ncccc4n3)n2)cc1` [Compound 17, 4-(2-(3-(4-methoxyphenyl)-1H-pyrazol-1-yl)pyrido[3,2-d]pyrimidin-4-yl)morpholine]: the IC50 was 100 to 1000 nM.
In the case of `CC(C)c1ccn(-c2nc(N3CCOCC3)c3ncccc3n2)n1` [Compound 18, 4-(2-(3-isopropyl-1H-pyrazol-1-yl)pyrido[3,2-d]pyrimidin-4-yl)morpholine] it was above 10000 nM.
To `Fc1ccccc1-c1ccn(-c2nc(N3CCOCC3)c3ncc(C4CCOCC4)cc3n2)n1` [Compound 19, 4-[2-[3-(2-fluorophenyl)pyrazol-1-yl]-7-tetrahydropyran-4-yl-pyrido[3,2-d]pyrimidin-4-yl]morpholine] belongs 100 to 1000 nM; to `Fc1ccc(-c2ccn(-c3nc(N4CCOCC4)c4ncc(C5CCOCC5)cc4n3)n2)cc1` [Compound 20, 4-[2-[3-(4-fluorophenyl)pyrazol-1-yl]-7-tetrahydropyran-4-yl-pyrido[3,2-d]pyrimidin-4-yl]morpholine], 10 to 100 nM.
As for `c1ccc(-c2ccn(-c3nc(N4CCOCC4)c4ncc(C5CCOCC5)cc4n3)n2)nc1` [Compound 21, 4-[2-[3-(2-pyridyl)pyrazol-1-yl]-7-tetrahydropyran-4-yl-pyrido[3,2-d]pyrimidin-4-yl]morpholine], the IC50 was in the range of 100 to 1000 nM.
To `Fc1cccc(-c2ccn(-c3nc(N4CCOCC4)c4ncc(C5CCOCC5)cc4n3)n2)c1` [Compound 22, 4-[2-[3-(3-fluorophenyl)pyrazol-1-yl]-7-tetrahydropyran-4-yl-pyrido[3,2-d]pyrimidin-4-yl]morpholine] belongs 10 to 100 nM; to `COc1cccc(-c2ccn(-c3nc(N4CCOCC4)c4ncccc4n3)n2)c1` [Compound 27, 4-(2-(3-(3-methoxyphenyl)-1H-pyrazol-1-yl)pyrido[3,2-d]pyrimidin-4-yl)morpholine], 10 to 100 nM.
In the case of `COc1cccc(-c2cnn(-c3nc(N4CCOCC4)c4ncccc4n3)c2)c1` [Compound 28, 4-(2-(4-(3-methoxyphenyl)-1H-pyrazol-1-yl)pyrido[3,2-d]pyrimidin-4-yl)morpholine] it was below 10 nM.
For the compound `COc1ccc(-c2ccn(-c3nc(N4CCOCC4)c4ncc(C5=CCOCC5)cc4n3)n2)cc1` [Compound 29, 4-(7-(3,6-dihydro-2H-pyran-4-yl)-2-(3-(4-methoxyphenyl)-1H-pyrazol-1-yl)pyrido[3,2-d]pyrimidin-4-yl)morpholine], the concentration for half-maximal inhibition (IC50) was 100 to 1000 nM.
`COc1ccc(-c2ccn(-c3nc(N4CCOCC4)c4ncc(C5CCOCC5)cc4n3)n2)cc1` [Compound 30, 4-(2-(3-(4-methoxyphenyl)-1H-pyrazol-1-yl)-7-(tetrahydro-2H-pyran-4-yl)pyrido[3,2-d]pyrimidin-4-yl)morpholine]: the IC50 was 100 to 1000 nM.
To `CC1COCCN1c1nc(-n2ccc(-c3ccccc3)n2)nc2cccnc12` (stereo not drawn) [Compound 31, 3-methyl-4-(2-(3-phenyl-1H-pyrazol-1-yl)pyrido[3,2-d]pyrimidin-4-yl)morpholine] belongs 100 to 1000 nM; to `Brc1cnc2c(N3CCOCC3)nc(-n3ccc(-c4ccccc4)n3)nc2c1` [Compound 33, 4-(7-bromo-2-(3-phenyl-1H-pyrazol-1-yl)pyrido[3,2-d]pyrimidin-4-yl)morpholine], 100 to 1000 nM.
In the case of `Cc1cnc2c(N3CCOCC3)nc(-n3ccc(-c4ccccc4)n3)nc2c1` [Compound 34, 4-(7-methyl-2-(3-phenyl-1H-pyrazol-1-yl)pyrido[3,2-d]pyrimidin-4-yl)morpholine] it was 10 to 100 nM.
To `COc1ccc(Cc2ccn(-c3nc(N4CCOCC4)c4ncc(C5=CCOCC5)cc4n3)n2)cc1` [Compound 35, 4-(7-(3,6-dihydro-2H-pyran-4-yl)-2-(3-(4-methoxybenzyl)-1H-pyrazol-1-yl)pyrido[3,2-d]pyrimidin-4-yl)morpholine] belongs 100 to 1000 nM; to `c1ccc(-c2ccn(-c3nc(N4CCOCC4)c4ncc(C5CCNCC5)cc4n3)n2)cc1` [Compound 36, 4-(2-(3-phenyl-1H-pyrazol-1-yl)-7-(piperidin-4-yl)pyrido[3,2-d]pyrimidin-4-yl)morpholine], 10 to 100 nM; to `CN1CCC(c2cnc3c(N4CCOCC4)nc(-n4ccc(-c5ccccc5)n4)nc3c2)CC1` [Compound 37, 4-(7-(1-methylpiperidin-4-yl)-2-(3-phenyl-1H-pyrazol-1-yl)pyrido[3,2-d]pyrimidin-4-yl)morpholine], 10 to 100 nM.
`Cc1cc(-c2ccccc2)nn1-c1nc(N2CCOCC2)c2ncccc2n1` [Compound 39, 4-(2-(5-methyl-3-phenyl-1H-pyrazol-1-yl)pyrido[3,2-d]pyrimidin-4-yl)morpholine]: the IC50 was above 10000 nM.
As for `c1ccc(-c2cnn(-c3nc(N4CCOCC4)c4ncc(N5CCOCC5)cc4n3)c2)cc1` [Compound 40, 4,4′-(2-(4-phenyl-1H-pyrazol-1-yl)pyrido[3,2-d]pyrimidine-4,7-diyl)dimorpholine], the IC50 is below 10 nM.
On to `c1ccc(-c2ccn(-c3nc(N4CCOCC4)c4ncc(N5CCOCC5)cc4n3)n2)cc1` [Compound 41, 4-[4-morpholino-2-(3-phenylpyrazol-1-yl)pyrido[3,2-d]pyrimidin-7-yl]morpholine], for which the IC50 is 10 to 100 nM.
To `c1ccc(-c2ccn(-c3nc(N4CCOCC4)c4ncc(N5CCNCC5)cc4n3)n2)cc1` [Compound 42, 4-[2-(3-phenylpyrazol-1-yl)-7-piperazin-1-yl-pyrido[3,2-d]pyrimidin-4-yl]morpholine] belongs 10 to 100 nM.
As for `COC(=O)c1cnc2c(N3CCOCC3)nc(-n3cc(-c4cccc(OC)c4)cn3)nc2c1` [Compound 43, methyl 2-(4-(3-methoxyphenyl)-1H-pyrazol-1-yl)-4-morpholinopyrido[3,2-d]pyrimidine-7-carboxylate], the IC50 was below 10 nM.
In the case of `COc1cccc(-c2cnn(-c3nc(N4CCOCC4)c4ncc(C(=O)O)cc4n3)c2)c1` [Compound 44, 2-(4-(3-methoxyphenyl)-1H-pyrazol-1-yl)-4-morpholinopyrido[3,2-d]pyrimidine-7-carboxylic acid] it was 10 to 100 nM; in that of `COc1cccc(-c2cnn(-c3nc(N4CCOCC4)c4ncc(CO)cc4n3)c2)c1` [Compound 45, (2-(4-(3-methoxyphenyl)-1H-pyrazol-1-yl)-4-morpholinopyrido[3,2-d]pyrimidin-7-yl)methanol], below 10 nM; in that of `Oc1cccc(-c2cnn(-c3nc(N4CCOCC4)c4ncccc4n3)c2)c1` [Compound 46, 3-(1-(4-morpholinopyrido[3,2-d]pyrimidin-2-yl)-1H-pyrazol-4-yl)phenol], below 10 nM.
